According to patent publication US20250353891A1 (MEDIMMUNE LIMITED, priority 2022, published 2025):
Starred links: 1 amine or outer side, 2 acyl side, 3 side chain; linkers in the order of their positions; H or OH if unused. Non-standard residues stand in square brackets, D forms with d. Residues, ends and D or L forms follow the SMILES beside them. Groups on a side chain read outwards from the residue. *: point of attachment. Dip = N[C@H](C(=O)O)C(c1ccccc1)c1ccccc1; γGlu = O=C(O)[C@H](CCC(=O)[*:2])N[*:1]; Stearoyl = CCCCCCCCCCCCCCCCCC(=O)*; αMeF = C[C@](N)(Cc1ccccc1)C(=O)O; Cha = N[C@@H](CC1CCCCC1)C(=O)O; PEG2 = NCCOCCOCCC(=O)O; Aib = CC(C)(N)C(=O)O

Tests used:
[1] = Proteolytic resistance to FasSSIF/Pancreatin; format: in vitro ADME; details: simulated intestinal fluid
Description: A fresh suspension of FasSSIF/P (Fasted-State Simulated Intestinal Fluid+USP Pancreatin®) was prepared according to that described by Galia, Nicolaides, Hörter, Löbenberg, Reppas and Dressman: Pharm. Res. 15 (1998) 698-705, and USP XL requirements. The resulting preparation was used immediately without storage.
Peptide for evaluation (1.0 mg) was dissolved in pre-warmed FasSSIF without Pancreatin® (200 μL). To this fresh FasSSIF/Pancreatin® (100 μL) was added to initiate potential proteolysis. Following momentary vortexing of the reaction tube the mixture was incubated at 37° C. in a thermostatic water bath for the duration of the experiment. 25 μL aliquot of the co-incubated peptide-enzyme mixture was periodically withdrawn (t=0, 5, 10 15 and 30 min) and quenched immediately by addition to a solution of 10% TFA in 1:1 water/acetonitrile (75 μL) to arrest proteolytic activity. Quenched samples were centrifuged (7800 RPM, 3 mins) to pellet solids and 10 μL aliquots of the supernatant solution were analyzed using analytical RP-HPLC as follows: Analytical RP-HPLC method: Agilent Polaris C8-A column (4.6×100 mm, 3 micron) eluted with a linear binary gradient of 10-90% MeCN (0.1% TFA v/v) in water (0.1% TFA v/v) over either 10 or 15 mins at 1.5 mL min^−1 at 40° C. with detection by UV absorption at 210 nm. Manual integration (AUC) allowed estimation of remaining intact peptide over the time course of the experiment.

[2] = target: human GLP-1 receptor (hGLP-1R) (Homo sapiens, UniProt P43220); assay: cAMP production (HTRF) in CHO cells expressing hGLP-1R; format: cell-based; set-up: expressed in transfected cells; details: for EC50: Table 6, peptides modified at position 17, cAMP in CHO hGLP-1R cells, geometric mean, read-out: hGLP-1R EC50; for % Relative Potency Ratio: Table 6, % GLP-1R activity relative to GLP-1 / % GlucR activity relative to glucagon
Sequence of human GLP-1 receptor (hGLP-1R) (P43220 24-463): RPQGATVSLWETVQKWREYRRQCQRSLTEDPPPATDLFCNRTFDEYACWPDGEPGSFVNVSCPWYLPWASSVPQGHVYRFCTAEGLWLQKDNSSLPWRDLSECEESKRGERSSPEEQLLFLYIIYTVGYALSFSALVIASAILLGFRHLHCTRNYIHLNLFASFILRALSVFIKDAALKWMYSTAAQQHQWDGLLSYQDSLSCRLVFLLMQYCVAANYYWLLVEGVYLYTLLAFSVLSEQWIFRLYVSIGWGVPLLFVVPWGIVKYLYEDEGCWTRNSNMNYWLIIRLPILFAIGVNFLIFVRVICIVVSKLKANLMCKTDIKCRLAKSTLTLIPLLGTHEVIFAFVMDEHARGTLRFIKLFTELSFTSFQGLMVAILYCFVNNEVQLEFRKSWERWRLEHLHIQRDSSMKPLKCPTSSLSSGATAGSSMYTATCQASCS
In short: (§1)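 Potency values represent EC50 from 4-parameter logistic curves of HTRF % Delta F signal. Receptor-expressing CHO cells (hGCGR 2×10^5 cells/mL, hGLP-1R 1×10^5 cells/mL) were exposed for 30 min at room temperature before two-step cAMP detection.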

[3] = target: human glucagon receptor (hGCGR) (Homo sapiens, UniProt P47871); assay: cAMP production (HTRF) in CHO cells expressing hGCGR; format: cell-based; set-up: expressed in transfected cells; details: Table 6, peptides modified at position 17; cAMP in CHO hGCGR cells; geometric mean; read-out: hGluc-R EC50
Sequence of human glucagon receptor (hGCGR) (P47871 26-477): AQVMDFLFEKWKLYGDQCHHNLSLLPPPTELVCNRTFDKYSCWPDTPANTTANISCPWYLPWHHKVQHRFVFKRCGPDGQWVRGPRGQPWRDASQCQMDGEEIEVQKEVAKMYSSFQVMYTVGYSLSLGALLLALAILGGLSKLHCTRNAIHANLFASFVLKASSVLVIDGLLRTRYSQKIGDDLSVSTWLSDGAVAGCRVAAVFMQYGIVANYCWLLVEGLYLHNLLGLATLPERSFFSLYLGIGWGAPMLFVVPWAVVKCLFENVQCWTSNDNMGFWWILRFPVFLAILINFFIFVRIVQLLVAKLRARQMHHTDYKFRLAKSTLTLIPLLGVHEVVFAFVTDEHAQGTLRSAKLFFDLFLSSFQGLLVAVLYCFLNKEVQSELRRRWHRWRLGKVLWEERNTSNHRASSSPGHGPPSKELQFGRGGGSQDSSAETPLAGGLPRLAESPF
In short: as §1

SMILES	remaining at 0.5 h, 3.3 mg/mL [1]	EC50 [2]	% Relative Potency Ratio [2]	EC50 [3]	remaining at 5 min, 3.3 mg/mL [1]	remaining at 10 min, 3.3 mg/mL [1]	remaining at 0.25 h, 3.3 mg/mL [1]
CCCCCCCCCCCCCCCCCC(=O)N[C@@H](CCC(=O)N[C@@H](CCC(=O)NCCOCCOCCC(=O)NCCOCCOCCC(=O)NCCCC[C@H](NC(=O)[C@H](CO)NC(=O)[C@H](CC(=O)O)NC(=O)[C@H](CC(C)C)NC(=O)[C@@H](NC(=O)[C@H](CCCCN)NC(=O)[C@H](CO)NC(=O)[C@@H](NC(=O)[C@H](CC(=O)O)NC(=O)[C@H](CO)NC(=O)[C@@H](NC(=O)[C@](C)(Cc1ccccc1)NC(=O)[C@H](CO)NC(=O)CNC(=O)[C@H](CCC(N)=O)NC(=O)[C@H](CO)NC(=O)[C@@H](N)Cc1c[nH]cn1)[C@@H](C)O)C(C)C)C(c1ccccc1)c1ccccc1)C(=O)N[C@@H](C)C(=O)N[C@@H](C)C(=O)N[C@@H](CCC(N)=O)C(=O)N[C@@H](CC(=O)O)C(=O)N[C@@](C)(Cc1ccccc1)C(=O)N[C@H](C(=O)N[C@@H](CCC(=O)O)C(=O)NC(C)(C)C(=O)N[C@@H](CC1CCCCC1)C(=O)N[C@@H](C)C(=O)N[C@@H](CC(N)=O)C(=O)N[C@H](C(N)=O)[C@@H](C)O)C(C)C)C(=O)O)C(=O)O [Peptide 52] (H-HSQGS[αMeF]TSDVSK[Dip]LDSK([PEG2-PEG2-γGlu-γGlu-Stearoyl])AAQD[αMeF]VE[Aib][Cha]ANT-NH2; N-terminus assumed)	90%	22.7 pM	0.6	6.65 pM	–	–	–
CCCCCCCCCCCCCCCCCC(=O)N[C@@H](CCC(=O)N[C@@H](CCC(=O)NCCOCCOCCC(=O)NCCOCCOCCC(=O)NCCCC[C@H](NC(=O)[C@H](CO)NC(=O)[C@H](CC(=O)O)NC(=O)[C@H](CC(C)C)NC(=O)[C@@H](NC(=O)[C@H](CCCCN)NC(=O)[C@H](CO)NC(=O)[C@@H](NC(=O)[C@H](CC(=O)O)NC(=O)[C@H](CO)NC(=O)[C@@H](NC(=O)[C@](C)(Cc1ccccc1)NC(=O)[C@H](CO)NC(=O)CNC(=O)[C@H](CCC(N)=O)NC(=O)[C@H](CO)NC(=O)[C@@H](N)Cc1c[nH]cn1)[C@@H](C)O)C(C)C)C(c1ccccc1)c1ccccc1)C(=O)N[C@@H](C)C(=O)N[C@@H](C)C(=O)N[C@@H](CCC(N)=O)C(=O)N[C@@H](CC(=O)O)C(=O)N[C@@](C)(Cc1ccccc1)C(=O)N[C@H](C(=O)N[C@@H](CCC(=O)O)C(=O)NC(C)(C)C(=O)N[C@H](C(=O)N[C@H](C(=O)N[C@@H](CCC(=O)O)C(=O)NCC(=O)NCC(N)=O)C(C)C)C(C)C)C(C)C)C(=O)O)C(=O)O [Peptide 53] (H-HSQGS[αMeF]TSDVSK[Dip]LDSK([PEG2-PEG2-γGlu-γGlu-Stearoyl])AAQD[αMeF]VE[Aib]VVEGG-NH2)	92%	3.03 pM	12.3	18.9 pM	–	–	–
CCCCCCCCCCCCCCCCCC(=O)N[C@@H](CCC(=O)N[C@@H](CCC(=O)NCCOCCOCCC(=O)NCCOCCOCCC(=O)NCCCC[C@H](NC(=O)[C@H](CO)NC(=O)[C@H](CC(=O)O)NC(=O)[C@H](CC(C)C)NC(=O)[C@@H](NC(=O)[C@H](CCCCN)NC(=O)[C@H](CO)NC(=O)[C@@H](NC(=O)[C@H](CC(=O)O)NC(=O)[C@H](CO)NC(=O)[C@@H](NC(=O)[C@](C)(Cc1ccccc1)NC(=O)[C@H](CO)NC(=O)CNC(=O)[C@H](CCC(N)=O)NC(=O)[C@H](CO)NC(=O)[C@@H](N)Cc1c[nH]cn1)[C@@H](C)O)C(C)C)[C@@H](C)CC)C(=O)N[C@@H](C)C(=O)N[C@@H](C)C(=O)N[C@@H](CCC(N)=O)C(=O)N[C@@H](CC(=O)O)C(=O)N[C@@](C)(Cc1ccccc1)C(=O)N[C@H](C(=O)N[C@@H](CCC(N)=O)C(=O)NC(C)(C)C(=O)N[C@H](C(=O)N[C@H](C(=O)N[C@@H](CC(N)=O)C(=O)N[C@H](C(N)=O)[C@@H](C)O)[C@@H](C)CC)[C@@H](C)CC)C(C)C)C(=O)O)C(=O)O [Peptide 117] (H-HSQGS[αMeF]TSDVSKILDSK([PEG2-PEG2-γGlu-γGlu-Stearoyl])AAQD[αMeF]VQ[Aib]IINT-NH2; N-terminus assumed)	8%	1.4 pM	2.6	1.85 pM	54%	35%	22%

The next lines start with the values.

remaining at 0.5 h, 3.3 mg/mL [1]	EC50 [2]	% Relative Potency Ratio [2]	EC50 [3]	remaining at 5 min, 3.3 mg/mL [1]	remaining at 10 min, 3.3 mg/mL [1]	remaining at 0.25 h, 3.3 mg/mL [1]	SMILES
94%	19.9 pM	4.3	43.2 pM	–	–	–	CCCCCCCCCCCCCCCCCC(=O)N[C@@H](CCC(=O)N[C@@H](CCC(=O)NCCOCCOCCC(=O)NCCOCCOCCC(=O)NCCCC[C@H](NC(=O)[C@H](CO)NC(=O)[C@H](CC(=O)O)NC(=O)[C@H](CC(C)C)NC(=O)[C@@H](NC(=O)[C@H](CCCCN)NC(=O)[C@H](CO)NC(=O)[C@@H](NC(=O)[C@H](CC(=O)O)NC(=O)[C@H](CO)NC(=O)[C@@H](NC(=O)[C@](C)(Cc1ccccc1)NC(=O)[C@H](CO)NC(=O)CNC(=O)[C@H](CCC(N)=O)NC(=O)[C@H](CO)NC(=O)[C@@H](N)Cc1c[nH]cn1)[C@@H](C)O)C(C)C)C(c1ccccc1)c1ccccc1)C(=O)N[C@@H](C)C(=O)N[C@@H](C)C(=O)N[C@@H](CCC(N)=O)C(=O)N[C@@H](CC(=O)O)C(=O)N[C@@](C)(Cc1ccccc1)C(=O)N[C@H](C(=O)N[C@@H](CCC(=O)O)C(=O)NC(C)(C)C(=O)N[C@@H](CC(C)C)C(=O)N[C@H](C(=O)N[C@@H](CO)C(=O)NCC(N)=O)[C@@H](C)CC)C(C)C)C(=O)O)C(=O)O [Peptide 48] (H-HSQGS[αMeF]TSDVSK[Dip]LDSK([PEG2-PEG2-γGlu-γGlu-Stearoyl])AAQD[αMeF]VE[Aib]LISG-NH2; N-terminus assumed)
91%	18.1 pM	4.6	41.9 pM	–	–	–	CCCCCCCCCCCCCCCCCC(=O)N[C@@H](CCC(=O)N[C@@H](CCC(=O)NCCOCCOCCC(=O)NCCOCCOCCC(=O)NCCCC[C@H](NC(=O)[C@H](CO)NC(=O)[C@H](CC(=O)O)NC(=O)[C@H](CC(C)C)NC(=O)[C@@H](NC(=O)[C@H](CCCCN)NC(=O)[C@H](CO)NC(=O)[C@@H](NC(=O)[C@H](CC(=O)O)NC(=O)[C@H](CO)NC(=O)[C@@H](NC(=O)[C@](C)(Cc1ccccc1)NC(=O)[C@H](CO)NC(=O)CNC(=O)[C@H](CCC(N)=O)NC(=O)[C@H](CO)NC(=O)[C@@H](N)Cc1c[nH]cn1)[C@@H](C)O)C(C)C)C(c1ccccc1)c1ccccc1)C(=O)N[C@@H](C)C(=O)N[C@@H](C)C(=O)N[C@@H](CCC(N)=O)C(=O)N[C@@H](CC(=O)O)C(=O)N[C@@](C)(Cc1ccccc1)C(=O)N[C@H](C(=O)N[C@@H](CCC(=O)O)C(=O)NC(C)(C)C(=O)N[C@@H](CC(C)C)C(=O)N[C@@H](CC(C)C)C(=O)N[C@@H](CC(N)=O)C(=O)N[C@H](C(N)=O)[C@@H](C)O)C(C)C)C(=O)O)C(=O)O [Peptide 51] (H-HSQGS[αMeF]TSDVSK[Dip]LDSK([PEG2-PEG2-γGlu-γGlu-Stearoyl])AAQD[αMeF]VE[Aib]LLNT-NH2; N-terminus assumed)
